Experimental findings from article PMC12693523, “Aldose Reductase Inhibition by Orthosiphon stamineus Extracts and Constituents Suggests Antioxidant Potential” (Molecules, 2025) are described below.

For the test, the target named is T1, aldose reductase (AKR1B1) (Homo sapiens, UniProt P15121).
T1 construct: recombinant human AKR1B1 protein (His Tag)
Nature of the test: NADPH consumption at […] nm with DL-glyceraldehyde, recombinant enzyme. It counts as biochemical.

With `COc1ccc(-c2cc(=O)c3c(O)c(OC)c(OC)cc3o2)cc1O` [EUP, eupatorin], the IC50 (usually the concentration that inhibits the measured activity by half) was 203 ± 0.24 µM.
Turning to `O=C(/C=C/c1ccc(O)c(O)c1)O[C@H](Cc1ccc(O)c(O)c1)C(=O)O` [RA, rosmarinic acid], the IC50 came out at 41.4 ± 0.04 µM.
